Laboratory results from ChEMBL document CHEMBL3882387, “Combination of selected analgesics and COX-II inhibitors” (2005).

Experiments:
Format in all cases: functional
Rattus norvegicus [1] = experiment: (§1) Analgesic activity in rat assessed as reduction in baking yeast suspension-induced hind paw oedema by measuring combination effect at 68.1 mg/kg, po coadministered with 215 mg/kg COX2 inhibitor celecoxib (celebrex) 1 hr prior to compound addition measured after 15 to 75 mins by Randall-selitto test relative to control; parameters: scale not given: the % may be the effect or the level left
Rattus norvegicus [2] = experiment: as §1, with “after 75” for “after 15”, “to 90” for “to 75”; parameters: scale not given: the % may be the effect or the level left
Rattus norvegicus [3] = experiment: Analgesic activity in rat assessed as reduction in baking yeast suspension-induced hind paw oedema at 215 mg/kg, po pretreated for 1 hr followed by 46.4 mg/kg ((1R,2R)-3-(2-dimethylaminomethyl-cyclohexyl)-phenol;1 hydrochloride addition by Randall-selitto test relative to control; parameters: scale not given: the % may be the effect or the level left
Rattus norvegicus [4] = experiment: (§2) Analgesic activity in rat assessed as reduction in baking yeast suspension-induced hind paw oedema at 215 mg/kg, po pretreated for 1 hr followed by 68.1 mg/kg (1RS,3RS,6RS)-6-dimethylaminomethyl-1-(3-[methoxy-phenyl)-cyclohexane-1,3-diol;hydrochloride addition measured after 15 to 75 mins by Randall-selitto test relative to control; parameters: scale not given: the % may be the effect or the level left
Rattus norvegicus [5] = experiment: as §2, with “after 75” for “after 15”, “to 90” for “to 75”; parameters: scale not given: the % may be the effect or the level left
Rattus norvegicus [6] = experiment: Analgesic activity in rat assessed as reduction in baking yeast suspension-induced hind paw oedema at 215 mg/kg, po pretreated for 1 hr followed by 46 mg/kg (1R,2R)-3-(3-dimethylamino-l-ethyl-2-methyl-propyl)-phenol; hydrochloride addition by Randall-selitto test relative to control; parameters: scale not given: the % may be the effect or the level left
Rattus norvegicus [7] = experiment: Analgesic activity in rat assessed as reduction in baking yeast suspension-induced hind paw oedema at 215 mg/kg, po pretreated for 1 hr followed by 21.5 mg/kg (1S,2S)-3-(3-dimethylamino-l-ethyl-2-methyl-propyl)-phenol;hydrochloride addition by Randall-selitto test relative to control; parameters: scale not given: the % may be the effect or the level left
Rattus norvegicus [8] = experiment: Analgesic activity in rat assessed as reduction in baking yeast suspension-induced hind paw oedema at 215 mg/kg, po pretreated for 1 hr followed by 31 mg/kg (1R,2R)-3-(3-dimethylamino-l-ethyl-2-methyl-propyl)-phenol; hydrochloride addition by Randall-selitto test relative to control; parameters: scale not given: the % may be the effect or the level left
Rattus norvegicus [9] = experiment: Analgesic activity in rat assessed as reduction in baking yeast suspension-induced hind paw oedema by measuring combination effect at 21.5 mg/kg, po co-administered with 215 mg/kg COX2 inhibitor celecoxib (celebrex) 1 hr prior to compound addition by Randall-selitto test relative to control; parameters: scale not given: the % may be the effect or the level left
Rattus norvegicus [10] = experiment: Analgesic activity in rat assessed as reduction in baking yeast suspension-induced hind paw oedema by measuring combination effect at 46 mg/kg, po coadministered with 215 mg/kg COX2 inhibitor rofecoxib (vioxx) 1 hr prior to compound addition by Randall-selitto test relative to control; parameters: scale not given: the % may be the effect or the level left
Rattus norvegicus [11] = experiment: Analgesic activity in rat assessed as reduction in baking yeast suspension-induced hind paw oedema by measuring combination effect at 46 mg/kg, po co-administered with 215 mg/kg COX2 inhibitor celecoxib (celebrex) by Randall-selitto test relative to control; parameters: scale not given: the % may be the effect or the level left
Rattus norvegicus [12] = experiment: Analgesic activity in rat assessed as reduction in baking yeast suspension-induced hind paw oedema at 31 mg/kg, po by measuring combination effect co-administered with 215 mg/kg COX2 inhibitor rofecoxib (vioxx) by Randall-selitto test relative to control; parameters: scale not given: the % may be the effect or the level left
Rattus norvegicus [13] = experiment: Analgesic activity in po dosed formalin-induced chronic pain rat model assessed as reduction in behavioural change by measuring combination ED50 co-administered with COX2 inhibitor celecoxib measured up to 60 mins by formalin test; details: 1 h
Rattus norvegicus [14] = experiment: Analgesic activity in rat assessed as reduction in baking yeast suspension-induced hind paw oedema by measuring combination effect at 31 mg/kg, po coadministered with 215 mg/kg COX2 inhibitor rofecoxib (vioxx) 1 hr prior to compound addition by Randall-selitto test relative to control; parameters: scale not given: the % may be the effect or the level left
Rattus norvegicus [15] = experiment: Analgesic activity in rat assessed as reduction in baking yeast suspension-induced hind paw oedema by measuring combination effect at 31 mg/kg, po co-administered with 215 mg/kg COX2 inhibitor celecoxib (celebrex) by Randall-selitto test relative to control; parameters: scale not given: the % may be the effect or the level left
Rattus norvegicus [16] = experiment: Analgesic activity in po dosed rat assessed as reduction in acetic acid-induced writhings by measuring combination ED50 co-administered with COX2 inhibitor rofecoxib pretreated for 30 mins followed by acetic acid challenge measured after 10 to 35 mins by writhing test
Rattus norvegicus [17] = experiment: Analgesic activity in rat assessed as reduction in baking yeast suspension-induced hind paw oedema at 31 mg/kg, po by measuring combination effect co-administered with 215 mg/kg COX2 inhibitor celecoxib by Randall-selitto test relative to control; parameters: scale not given: the % may be the effect or the level left
Rattus norvegicus [18] = experiment: Analgesic activity in rat assessed as reduction in baking yeast suspension-induced hind paw oedema at 215 mg/kg, po co-administered with 31 mg/kg (1R,2R)-3-(3-dimethylamino-l-ethyl-2-methyl-propyl)-phenol; hydrochloride by Randall-selitto test relative to control; parameters: scale not given: the % may be the effect or the level left
Rattus norvegicus [19] = experiment: Analgesic activity in rat assessed as reduction in baking yeast suspension-induced hind paw oedema by measuring combination effect at 46.4 mg/kg, po co-administered with 215 mg/kg COX2 inhibitor celecoxib (celebrex) 1 hr prior to compound addition by Randall-selitto test relative to control; parameters: scale not given: the % may be the effect or the level left

COc1cccc([C@@]2(O)C[C@H](O)CC[C@@H]2CN(C)C)c1.Cl (racemic)
Activity (Rattus norvegicus [1]): 109.3%
Activity (Rattus norvegicus [2]): 68.5%

Cc1ccc(-c2cc(C(F)(F)F)nn2-c2ccc(S(N)(=O)=O)cc2)cc1 [CELECOXIB]
Activity (Rattus norvegicus [3]): 8.9%
Activity (Rattus norvegicus [4]): 16.7%
Activity (Rattus norvegicus [5]): 8%
Activity (Rattus norvegicus [6]): 17.3%
Activity (Rattus norvegicus [7]): 8.9%
Activity (Rattus norvegicus [8]): 17.3%

CC[C@H](c1cccc(O)c1)[C@H](C)CN(C)C.Cl
Activity (Rattus norvegicus [9]): 96.4%

CC[C@@H](c1cccc(O)c1)[C@@H](C)CN(C)C.Cl [TAPENTADOL HYDROCHLORIDE]
Activity (Rattus norvegicus [10]): 59.8%
Activity (Rattus norvegicus [11]): 86.1%
Activity (Rattus norvegicus [12]): 29.7%
ED50 (Rattus norvegicus [13]): 60.6 mg/kg
Activity (Rattus norvegicus [14]): 45.7%
Activity (Rattus norvegicus [15]): 60.9%
ED50 (Rattus norvegicus [16]): 23.3 mg/kg
Activity (Rattus norvegicus [17]): 29.6%

CS(=O)(=O)c1ccc(C2=C(c3ccccc3)C(=O)OC2)cc1 [ROFECOXIB]
Activity (Rattus norvegicus [18]): 11.2%
Activity (Rattus norvegicus [6]): 13%
Activity (Rattus norvegicus [8]): 13%

CN(C)C[C@@H]1CCCC[C@H]1c1cccc(O)c1.Cl
Activity (Rattus norvegicus [19]): 84.1%
